Laboratory results reported in patent US9023861B2, “Anticancer combination of artemisinin-based drugs and other chemotherapeutic agents” (Sigma-Tau Industrie Farmaceutiche Riunite, S.p.A., priority 2009, dated 2015).

Legend:
NCI-H460 = assay: Synergistic interaction with DHA, combination index (Chou-Talalay, SRB); assay type: cell-based; details: drug in combination with DHA (1.0-20 μM), DHA 2 h before, drug 72 h
Description: (§1) Tumour cells were treated for 2 h with DHA prior to exposure to further chemotherapeutic agents for 72 h. Cell survival was then evaluated through sulphorodamine B test. Data gathered from the various combination experiments were analyzed using Calcusyn software (Biosoft, Ferguson, Mo.) through the elaboration of isobolograms to determine if the combinations of DHA and the various chemotherapeutic agents were additive, synergistic or antagonistic.

A431 = assay: as above; assay type: cell-based; details: drug in combination with DHA (1.0-20 μM), DHA 2 h before, drug 72 h
Description: as §1

CAPAN-1 = assay: as above; assay type: cell-based; details: drug in combination with DHA (1.0-20 μM), DHA 2 h before, drug 72 h
Description: as §1

HCT116 = assay: as above; assay type: cell-based; details: drug in combination with DHA (1.0-20 μM), DHA 2 h before, drug 72 h
Description: as §1

MDA-MB436 = assay: as above; assay type: cell-based; details: drug in combination with DHA (1.0-20 μM), DHA 2 h before, drug 72 h
Description: as §1

A2780/DDP = assay: as above; assay type: cell-based; details: drug in combination with DHA (1.0-20 μM), DHA 2 h before, drug 72 h
Description: (§2) Tumour cells were grown in RPMI 1640 containing 10% foetal bovine serum and treated as described in example 1 with the exception that instead of being exposed only to ART or DHA, the cell lines were treated with the drugs reported in table 2 in combination with DHA (from 1.0 μM to 20 μM, table 2). Tumour cells were treated for 2 h with DHA prior to exposure to further chemotherapeutic agents for 72 h. Cell survival was then evaluated through sulphorodamine B test. Data gathered from the various combination experiments were analyzed using Calcusyn software (Biosoft, Ferguson, Mo.) through the elaboration of isobolograms to determine if the combinations of DHA and the various chemotherapeutic agents were additive, synergistic or antagonistic. Viability assay results (SRB) were expressed as the fraction of cells killed when exposed to a single drug or to a drug combination with respect to the untreated cells. A combination index value (CI) was determined by means of the Chou-Talalay median effect method (T-C Chou, et al., Trends Pharmacol. Sci., 1983, 4, 450), wherein synergism can be defined when CI<1 and the lower the CI parameter value, the stronger the synergism (as defined by CalcuSyn 2.0 analyzer).

SW620 = assay: as above; assay type: cell-based; details: drug in combination with DHA (1.0-20 μM), DHA 2 h before, drug 72 h
Description: as §2

[1] = system: NCI-H460 non-small cell lung carcinoma; assay: In vivo antitumor activity, s.c. xenograft in CD1 nude mice; details: DHA 200 mg/kg p.o., AZD2281 100 mg/kg i.p., qdx5/wx3w
Description: NCI-H460 non-small cell lung carcinoma cells were inoculated subcutaneously (s.c.) in the right flank of CD1 nude mice (3×10^6/0.1 ml of Medium 199). Treatments started three days after tumour injection. Mice were subdivided (10 mice/group) in the following experimental groups:
(§3) a) Vehicle (DMSO 10%) 10 ml/kg, i.p.;
b) DHA 200 mg/kg, p.o. qdx5/wx3w;
d) AZD2281+DHA (doses and schedules as above).
For the latter experiment DHA was administered immediately before AZD2281.
To evaluate the antitumour activity, tumour diameters were measured with a Vernier calliper according to the formula TV=d^2×D/2 where d and D are the shortest and longest diameters, respectively.
When tumours reached a volume of about 1500 mm^3, mice were sacrificed by cervical dislocation. The efficacy of the drug was assessed as the tumour volume inhibition according to the formula reported underneath: […]
Body weight recording was carried out to evaluate body weight loss as calculated in the equation underneath: […]
Wherein BW day x corresponds to the mean weight at day x of the experiment meanwhile BW day 1 corresponds to the mean weight at the first day of the experiment.

[2] = system: HCT116 colon cancer cells; assay: In vivo antitumour activity, s.c. xenograft in CD1 nude mice; details: DHA 200 mg/kg p.o., AZD2281 100 mg/kg i.p., qdx5/wx4w; for antitumor effect when given singularly / tolerability (body weight loss during the treatment): HCT116 xenograft mice, ABT-888 50 mg/kg; for BWL %: body weight loss; for BWL % / TVI % / TV ± SE: HCT116 xenograft, CD1 nude mice, ABT-888 50 mg/kg i.p.; for TVI %: tumour volume inhibition; for TV ± SE: tumour volume, evaluated at about 500 mm^3
Description: HCT116 colon cancer cells were inoculated subcutaneously (s.c.) in the right flank of CD1 nude mice (5×10^6/0.1 ml of Medium 199). Treatments started three days after tumour injection. Mice were subdivided (8 mice/group) in the following experimental groups:
as §3
b) DHA 200 mg/kg, p.o. qdx5/wx4w;
d) AZD2281+DHA (doses and schedules as above);
e) ABT-888 50 mg/kg, i.p. qdx5/wx4w;
f) ABT-888+DHA (doses and schedules as above).
DHA was administered immediately before AZD2281 or ABT-888.
The antitumour activity was evaluated according to the protocol reported hereinabove in example 3 when tumours reached a volume of about 500 mm^3.
Body weight recording was carried out to evaluate body weight loss according to the protocol reported hereinabove in example 3.

LoVo/Dx MDR = assay: Anti-proliferative activity, sulphorodamine B test; assay type: cell-based; details: LoVo/Dx MDR versus LoVo
Description: The biological activity of DHA and ART on tumour cells survival was evaluated. The latter were seeded in 96-well tissue culture plates at approximately 10% confluence and were allowed to attach and recover for at least 24 h before being exposed to DHA or ART for 24 h at 37° C. They were then washed to remove DHA and ART and left to recover for 48 hours in medium culture. The medium culture was then removed and cells were washed three times with PBS. The plates were then incubated for on ice for 1 hour with 200 μl of PBS and 50 μl of cold 80% TCA before being washed with distilled water, dried on paper and finally at 40° C. for 5 minutes. 200 μl of 0.4% sulphorodamine B in 1% acetic acid were added and the incubation was prolonged for 30 minutes. Sulphorodamine B was removed, and the plates were washed 3 times with 1% acetic acid. They were finally dried on paper followed by standing at 40° C. for 5 minutes. Then 200 μl Tris 10 mM were added, the plates were kept under stirring for 20 minutes. Cell survival was determined as optical density at 540 nm by means of a Multiskan spectrofluorimeter. The amount of cells killed was expressed as the percentage decrease in sulphorodamine B binding compared to control cultures. IC50 were generated with their standard deviations by the ALLFIT program.

A2780 = assay: Synergistic interaction with DHA, combination index (Chou-Talalay, SRB); assay type: cell-based; details: drug in combination with DHA (1.0-20 μM), DHA 2 h before, drug 72 h
Description: as §2

CCc1c2c(nc3ccc(O)cc13)-c1cc3c(c(=O)n1C2)COC(=O)[C@]3(O)CC [SN-38]
Combination index values ED50 (NCI-H460): 0.81 | Combination index values ED75 (NCI-H460): 0.68 | Combination index values ED90 (NCI-H460): 0.59

O=C(c1cc(Cc2n[nH]c(=O)c3ccccc23)ccc1F)N1CCN(C(=O)C2CC2)CC1 [AZD2281]
Combination index values ED50 (A431): 0.37 | Combination index values ED75 (A431): 0.02 | Combination index values ED90 (A431): 0.02 | Combination index values ED50 (CAPAN-1): 0.35 | Combination index values ED75 (CAPAN-1): 0.49 | Combination index values ED90 (CAPAN-1): 0.73 | Combination index values ED50 (HCT116): 0.36 | Combination index values ED75 (HCT116): 0.34 | Combination index values ED90 (HCT116): 0.31 | Combination index values ED50 (MDA-MB436): 0.28 | Combination index values ED75 (MDA-MB436): 0.30 | Combination index values ED90 (MDA-MB436): 0.68 | Combination index values ED50 (NCI-H460): 0.62 | Combination index values ED75 (NCI-H460): 0.48 | Combination index values ED90 (NCI-H460): 0.42 | Combination index values ED50 (A2780/DDP): 0.63 | Combination index values ED75 (A2780/DDP): 0.68 | Combination index values ED90 (A2780/DDP): 0.63 | Combination index values ED50 (SW620): 0.60 | Combination index values ED75 (SW620): 0.55 | Combination index values ED90 (SW620): 0.66 | antitumor effect when given singularly ([1]; NCI-H460 xenograft mice): no antitumor effect | tolerability (body weight loss during the treatment) ([1]; NCI-H460 xenograft mice): well-tolerated | BWL % ([1]; body weight loss, NCI-H460 xenograft, CD1 nude mice): 1% | TVI % ([1]; tumour volume inhibition, NCI-H460 xenograft, CD1 nude mice): 1% | TV ± SE ([1]; tumour volume, NCI-H460 xenograft, CD1 nude mice, sacrifice at about 1500 mm^3): 1603 ± 171 | antitumor effect when given singularly [2]: None of them when given singularly did show any antitumor effect | tolerability (body weight loss during the treatment) [2]: well-tolerated | BWL % [2]: 1% | TVI % [2]: 18% | TV ± SE [2]: 328 ± 52

C[C@]1(c2nc3c(C(N)=O)cccc3[nH]2)CCCN1 [ABT-888]
Combination index values ED50 (A431): 0.45 | Combination index values ED75 (A431): 0.49 | Combination index values ED90 (A431): 0.37 | Combination index values ED50 (CAPAN-1): 0.59 | Combination index values ED75 (CAPAN-1): 0.32 | Combination index values ED90 (CAPAN-1): 0.22 | Combination index values ED50 (HCT116): 0.66 | Combination index values ED75 (HCT116): 0.66 | Combination index values ED90 (HCT116): 0.66 | Combination index values ED50 (MDA-MB436): 0.42 | Combination index values ED75 (MDA-MB436): 0.43 | Combination index values ED90 (MDA-MB436): 0.47 | Combination index values ED50 (NCI-H460): 0.78 | Combination index values ED75 (NCI-H460): 0.61 | Combination index values ED90 (NCI-H460): 0.49 | antitumor effect when given singularly [2]: None of them when given singularly did show any antitumor effect | tolerability (body weight loss during the treatment) [2]: well-tolerated | BWL % [2]: 0% | TVI % [2]: 2% | TV ± SE [2]: 395 ± 56

COc1cccc2c1C(=O)c1c(O)c3c(c(O)c1C2=O)C[C@@](O)(C(=O)CO)C[C@@H]3O[C@H]1C[C@H](N)[C@H](O)[C@H](C)O1 [Doxorubicin, doxorubicin]
resistance index (LoVo/Dx MDR): 63 | Combination index values ED50 (NCI-H460): 0.76 | Combination index values ED75 (NCI-H460): 0.53 | Combination index values ED90 (NCI-H460): 0.37

O=c1[nH]c2ccccc2c2ccccc12 [Phenanthridinone]
Combination index values ED50 (NCI-H460): 0.19 | Combination index values ED75 (NCI-H460): 0.20 | Combination index values ED90 (NCI-H460): 0.22 | Combination index values ED50 (A2780): 0.003 | Combination index values ED75 (A2780): 0.05 | Combination index values ED90 (A2780): 0.67

CC[C@@]1(O)C(=O)OCc2c1cc1n(c2=O)Cc2c-1nc1ccccc1c2/C=N\OCCN [7-(2-amino)-ethoxyiminomethyl-camptothecin]
Combination index values ED50 (NCI-H460): 0.39 | Combination index values ED75 (NCI-H460): 0.24 | Combination index values ED90 (NCI-H460): 0.16

N.N.O=C([O-])C1(C(=O)[O-])CCC1.[Pt+2] [Carboplatin, carboplatin]
Combination index values ED50 (NCI-H460): 0.53 | Combination index values ED75 (NCI-H460): 0.71 | Combination index values ED90 (NCI-H460): 0.95

NC(=O)c1cccc2cn(-c3ccc([C@@H]4CCCNC4)cc3)nc12 [MK-4827]
Combination index values ED50 (NCI-H460): 0.83 | Combination index values ED75 (NCI-H460): 0.83 | Combination index values ED90 (NCI-H460): 0.84

N.N.[Cl][Pt][Cl] [Cisplatin, cisplatin]
Combination index values ED50 (NCI-H460): 0.79 | Combination index values ED75 (NCI-H460): 0.88 | Combination index values ED90 (NCI-H460): 0.98
